Assay [1] relates to PC-12. In words: Effect on neurite outgrowth from rat PC12D cells at 10 to 100 umol after 48 hrs by phase-contrast microscopy. Type of assay: functional, cell-based.
The subject of assay [2] is PC-12. In words: Enhancement of 2 ng/mL NGF-induced neurite outgrowth in rat PC12D cells at 100 umol after 48 hrs by phase-contrast microscopy relative to 50 ng/mL NGF alone. Type of assay: functional.
For assay [3], the system named is PC-12. Put plainly: Enhancement of NGF-induced neurite outgrowth in rat PC12D cells at 10 to 100 umol after 48 hrs by phase-contrast microscopy. Format: functional, cell-based.

Activity calls are given as the source filed them. No cut-off for these calls is given here.

Results on 3 compounds are retold here after ChEMBL document CHEMBL1157257, “Bioactive ent-clerodane diterpenoids from the aerial parts of Baccharis gaudichaudiana” (2006).

For `CO[C@@H]1C[C@H](CC[C@@]2(C)[C@H](C)CC[C@@]3(C)C(C(=O)O)=CCC[C@H]23)CO1`, the result in the assay on PC-12 [1] was inactive. Besides, the Activity in the assay with PC-12 [2] turned out to be 53%.

In the case of `COC(=O)CC(CO)CC[C@@]1(C)[C@H](C)C(=O)C[C@@]23COC(=O)C2=CCC[C@@H]31` (stereo not given in full), the result in the assay with PC-12 [3] was inactive.

On to `CO[C@H]1C[C@H](CC[C@@]2(C)[C@H](C)CC[C@@]3(C)C(C(=O)O)=CCC[C@H]23)CO1`, for which, in the assay on PC-12 [1], the outcome was inactive. Also, the Activity in the assay with PC-12 [2] stood at 49%.
